According to patent US10155021B2, “Antimicrobial 4-oxoquinolizines” (Emergent Product Development Gaithersburg Inc., priority 2011, dated 2018):
In brackets after ≈: the same amount, converted by molar mass. Several values for one entry are separate records, joined by “and”; a condition that tells them apart may be missing. Equal values may be shown once.

Tests used:
[1] = tested on: E. faecium 19434; experiment: MIC, standard panel of Gram-positive and Gram-negative bacteria (CLSI); type: cell-based, Enterococcus faecium; conditions: Enterococcus faecium, 19434, read-out: MIC E. faecium 19434
[2] = tested on: S. aureus 101; experiment: as above; type: cell-based, Staphylococcus aureus; conditions: Staphylococcus aureus, 101, read-out: MIC S. aureus 101
[3] = tested on: E. cloacae 13047; experiment: as above; type: cell-based, Enterobacter cloacae; conditions: Enterobacter cloacae, 13047, read-out: MIC E. cloacae 13047
[4] = tested on: A. baumanii 19606; experiment: as above; type: cell-based; conditions: Acinetobacter baumannii, 19606, read-out: MIC A. baumanii 19606
[5] = tested on: E. faecalis 29212; experiment: as above; type: cell-based, Enterococcus faecalis; conditions: Enterococcus faecalis, 29212, read-out: MIC E. faecalis 29212
[6] = tested on: E. coli 25922; experiment: as above; type: cell-based, Escherichia coli; conditions: Escherichia coli, 25922, read-out: MIC E. coli 25922
[7] = tested on: S. epidermis 12228; experiment: as above; type: cell-based, Staphylococcus epidermis; conditions: Staphylococcus, 12228, read-out: MIC S. epidermis 12228
[8] = tested on: S. aureus 25923; experiment: as above; type: cell-based, Staphylococcus aureus; conditions: Staphylococcus aureus, 25923, read-out: MIC S. aureus 25923
[9] = tested on: S. aureus 25923 HS; experiment: as above; type: cell-based; conditions: Staphylococcus aureus, read-out: MIC S. aureus 25923 HS
[10] = tested on: P. aeruginosa 27853; experiment: as above; type: cell-based, Pseudomonas aeruginosa; conditions: Pseudomonas aeruginosa, 27853, read-out: MIC P. aeruginosa 27853
[11] = tested on: GN48 Klebsiella pneumoniae; experiment: Chequerboard synergy with polymyxin B (FICI); type: cell-based
From the text: (§1) A chequerboard technique was used to identify possible synergistic or antagonistic interactions between the 4-oxoquinolizines compounds, levofloxacin and polymyxin B. Levofloxacin was included as a control. […] Final dilutions were made in Mueller-Hinton broth, the specific test medium used for MIC determinations according to CLSI guidelines (CLSI. Methods for Dilution Antimicrobial Susceptibility Tests for Bacteria That Grow Aerobically; Approved Standard-Eighth Edition (2009). CLSI Document M07-A8. CLSI, Wayne, Pa. 19087-1898, USA.). The test medium used was a cation-adjusted Mueller-Hinton Broth II (Becton Dickinson UK Ltd., Oxford Science Park, Oxford, UK, OX4 4DQ).
(§2) The compounds 2, 33 and 35, as well as levofloxacin were tested in combination with polymyxin B on the following isolates: GN31 Acinetobacter baumannii—antibiotic susceptible clinical isolate, GN52 Acinetobacter baumannii—levofloxacin resistant clinical isolate, GN56 Acinetobacter baumannii—levofloxacin resistant clinical isolate, GN48 Klebsiella pneumoniae—NCTC 13443—NDM-1-metallo-R-lactamase and GN10 Pseudomonas aeruginosa—ATCC 27853—antibiotic susceptible reference isolate. All isolates are from the collection maintained at Quotient Bioresearch Ltd., Cambridge, UK.
(§3) The MIC values for the compounds and polymyxin B and levofloxacin were determined by broth microdilution following CLSI guidelines, and the MICs of agents in combination were determined as described by Pillai et.al (Pillai S K, Moellering R C Jr, Eliopoulis G M; Antimicrobial Combinations in Antibiotics in Laboratory Medicine 5th Edition (V. Lorian Ed) (2005) p 365-440). Initial MIC results were used to determine the microtiter plate patterns for the chequerboards. A suitable doubling dilution concentration range was selected such that the combination antibiotic range was at least two concentrations above and four concentrations below the MIC for each isolate. A fixed range of 0.008 to 8 mg/L was tested for polymyxin B except in the case of A. baumannii GN31 where a range of 0.004 to 4 mg/L was tested when in combination with the compounds 2, 33 and 35 as well as levofloxacin.
(§4) From the raw data, fractional inhibitory concentration indices (FICI) were determined for the compounds of the invention and levofloxacin together with polymyxin B for each isolate as follows: FICI=FICX+FICY Where,
(§5) FICX=concentration of the combination antibiotic in a particular row÷MIC of the combination drug alone
(§6) FICY=MIC of polymyxin B in combination÷MIC of the polymyxin B alone
(§7) Additionally isobolograms were created to represent the same data visually. Here, the MIC of polymyxin B was plotted against every concentration of the combination antibiotic up to the MIC.

[12] = tested on: GN52 Acinetobacter baumannii; experiment: Pre-chequerboard MIC, broth microdilution (Example 6); type: cell-based; conditions: levofloxacin resistant clinical isolate
From the text: as §1, §2, §3

[13] = tested on: GN10 Pseudomonas aeruginosa; experiment: as above; type: cell-based; conditions: ATCC 27853 / GN10, ATCC 27853, antibiotic susceptible
From the text: as §1, §2, §3

[14] = tested on: GN31 Acinetobacter baumannii; experiment: as above; type: cell-based; conditions: antibiotic susceptible clinical isolate
From the text: as §1, §2, §3

[15] = tested on: GN48 Klebsiella pneumoniae; experiment: as above; type: cell-based; conditions: GN48 / NCTC 13443, NCTC 13443, NDM-1
From the text: as §1, §2, §3

[16] = tested on: GN56 Acinetobacter baumannii; experiment: as above; type: cell-based; conditions: levofloxacin resistant clinical isolate
From the text: as §1, §2, §3

[17] = tested on: GN52 Acinetobacter baumannii; experiment: Chequerboard synergy with polymyxin B (FICI); type: cell-based
From the text: as §1, §2, §3, §4, §5, §6, §7

[18] = tested on: GN31 Acinetobacter baumannii; experiment: Chequerboard synergy with polymyxin B (FICI); type: cell-based
From the text: as §1, §2, §3, §4, §5, §6, §7

[19] = tested on: GN56 Acinetobacter baumannii; experiment: Chequerboard synergy with polymyxin B (FICI); type: cell-based
From the text: as §1, §2, §3, §4, §5, §6, §7

Compound: CN[C@H](CC(C)C)C(=O)N[C@H]1C(=O)N[C@@H](CC(N)=O)C(=O)N[C@H]2C(=O)N[C@H]3C(=O)N[C@H](C(=O)N[C@H](C(=O)O)c4cc(O)cc(O)c4-c4cc3ccc4O)[C@H](O)c3ccc(c(Cl)c3)Oc3cc2cc(c3O[C@@H]2O[C@H](CO)[C@@H](O)[C@H](O)[C@H]2O[C@H]2C[C@](C)(N)[C@H](O)[C@H](C)O2)Oc2ccc(cc2Cl)[C@H]1O [Vancomycin, reference compound]
- MIC [1]: 1 mg/L (≈ 0.69 µM)
- MIC [2]: 2 mg/L (≈ 1.38 µM)
- MIC [3]: > 128 mg/L
- MIC [4]: > 128 mg/L
- MIC [5]: 2 mg/L (≈ 1.38 µM)
- MIC [6]: > 128 mg/L
- MIC [7]: 2 mg/L (≈ 1.38 µM)
- MIC [8]: 2 mg/L (≈ 1.38 µM)
- MIC [9]: 2 mg/L (≈ 1.38 µM)
- MIC [10]: > 128 mg/L

Compound: Cc1c(-c2ccc3[nH]ncc3c2)ccn2c(=O)c(C(=O)O)cc(C3CC3)c12 [Compound 35, 8-(1H-indazol-5-yl)-1-cyclopropyl-9-methyl-4-oxo-quinolizine-3-carboxylic acid]
- Combination drug MIC alone [11]: 16 mg/L
- Synergy ([11]; combination with polymyxin B): partial synergy
- MIC [12]: 2 mg/L
- MIC [13]: 0.25 mg/L
- MIC [14]: 0.03 mg/L
- MIC [15]: 16 mg/L
- MIC [16]: 8 mg/L

Compound: Polymyxin B
- Polymyxin B MIC alone [17]: 0.5 mg/L
- Polymyxin B MIC alone [18]: 0.25 mg/L and 0.5 mg/L
- Polymyxin B MIC alone [11]: 0.5 mg/L
- Polymyxin B MIC alone [19]: 0.5 mg/L

Compound: Cc1c(-c2ccc(N)nc2)ccn2c(=O)c(C(=O)O)cc(C3CC3)c12 [Compound 33, 8-(6-amino-3-pyridyl)-1-cyclopropyl-9-methyl-4-oxo-quinolizine-3-carboxylic acid]
- MIC [12]: 2 mg/L
- MIC [13]: 0.5 mg/L
- MIC [14]: 0.03 mg/L
- MIC [15]: 16 mg/L
- MIC [16]: 16 mg/L
